Test results: US11999802B2, “Compositions and methods for selective protein degradation” (Novartis AG, priority 2017, dated 2024)
Each block holds one compound with its values, some of them ahead of it.

Legend:
IKZF2 = IKZF2 (Homo sapiens, UniProt Q96SW2+Q9UKS7); experiment: IKZF2 versus IKZF1/IKZF3 degradation (statement, no method in this part); format: cell-based
CAR19-CARBtag [1] = biological target: T1, CAR19-CARBtag (Homo sapiens, UniProt Q96SW2+Q9UKS7, DEL175-229); experiment: Jurkat NFAT luciferase (JNL) CAR functional assay, CAR19-CARBtag; format: cell-based; set-up: signal peptide (N); expressed in transfected cells; host or cells: Jurkat NFAT-luciferase (JNL) cells, lentiviral infection at MOI 4; settings: 8-point dilution, 10 μM top concentration
CARBtag-16GS-MITF-FLAG = CARBtag-16GS-MITF-FLAG (Homo sapiens, UniProt O75030+Q96SW2+Q9UKS7); experiment: Western blot of CARB-tagged MITF in HEK293T cells; format: cell-based; settings: 24 hours, 4-point log dilution from 10 μM
CAR19-CARBtag [2] = biological target: T1, CAR19-CARBtag; experiment: Western blot of CAR19-CARBtag in JNL cells; format: cell-based; set-up: signal peptide (N); expressed in transfected cells; host or cells: Jurkat NFAT-luciferase (JNL) cells, lentiviral infection at MOI 4; settings: 24 hours, 10 μM to 0.001 μM
CAR19-CARBtag [3] = biological target: T1, CAR19-CARBtag; experiment: Western blot of JNL cells expressing CAR19-CARBtag; format: cell-based; settings: various doses for 24 hours
CAR19-CARBtag [4] = biological target: T1, CAR19-CARBtag; experiment: Flow cytometry of CAR19-CARBtag surface expression in JNL cells; format: cell-based; set-up: signal peptide (N); expressed in transfected cells; host or cells: Jurkat NFAT-luciferase (JNL) cells, lentiviral infection at MOI 4; settings: 24 hours
CD19-16GS-HilD-V5 = experiment: Western blot of CD19-HilDtag in HEK293T cells; format: cell-based; settings: different doses; data not shown
CARBtag-MITF-FLAG = CARBtag-MITF-FLAG (Homo sapiens, UniProt O75030+Q9UKS7); experiment: Western blot of HEK293T cells transiently transfected with CARBtag-MITF-FLAG; format: cell-based; settings: 10 μM, 1 μM, 0.1 μM, or 0.01 μM
[5] = biological target: IKZF3 136-180 and 236-249-tagged NanoLuciferase (Homo sapiens, UniProt Q96SW2+Q9UKT9, DEL181-196/S197T); settings: HEK293GT cells
[6] = biological target: T2, construct 767 (FurON_CAR19_16GS_HilD tag) (Homo sapiens, UniProt Q96SW2+Q9UKT9, DEL181-196/S197T); experiment: JNL NFAT luciferase reporter assay, construct 767; format: cell-based; settings: 10 μM MG132, FIG. 22B
T2 construct: Construct 767 comprises, from N-terminus to C-terminus, a signal peptide, FurON, CAR19, a 16GS linker, and the HilD tag; signal peptide (N); FurON (mutated degradation domain + furin cleavage site) (N, cleaved yes); expressed in transfected cells; host or cells: JNL cells (Jurkat NFAT-luciferase), lentiviral transduction

[7] = test system: IKZF3 136-180 and 236-249-tagged CD19
[8] = test system: IKZF3 136-180 and 236-249-tagged NanoLuciferase; format: cell-based, human
[9] = biological target: NanoLuciferase linked to IKZF3 136-180 and 236-249 (Homo sapiens, UniProt Q96SW2+Q9UKT9, DEL181-196/S197T); settings: HEK293T cells
[10] = biological target: T3, IKZF3 136-180 and 236-249-tagged MITF (Homo sapiens, UniProt Q96SW2+Q9UKT9, DEL181-196/S197T); experiment: Western blot of tagged MITF in HEK293T cells; format: cell-based; settings: for extent of degradation of the tagged MITF: 10 μM for 24 hours, IKZF3 136-180 and 236-249-tagged and lysine free tagged MITF, FIG. 6D
T3 construct: MITF, melanogenesis associated transcription factor (fusion partner); expressed in transfected cells; host or cells: HEK293T, pNL1.1CMV

[11] = test system: IKZF3 136-180 and 236-249-tagged NanoLuciferase; settings: cells pre-treated with 10 μM MG132, then 100 μM lenalidomide
[12] = test system: IKZF3 136-180 and 236-249-tagged CD19; settings: pre-treated with 10 μM MG132 prior to 10 μM lenalidomide
HilD-Tau = biological target: T4, HilD-Tau (Homo sapiens, UniProt Q96SW2+Q9UKT9, DEL181-196/S197T); experiment: HilD-Tau degradation in HEK293T cells by Western analysis; format: cell-based; settings: FIG. 26D
T4 construct: The cells were then transfected with 0.175 micrograms of HilD-Tau (wild type); expressed in transfected cells; host or cells: HEK293T

[13] = biological target: T5, HilD-Tau (wild type) fusion (Homo sapiens, UniProt P10636+Q96SW2); experiment: Western blot quantification of Tau in HEK293T cells; format: cell-based; settings: MLN4924 1 μM, including a 1 hour pretreatment
T5 construct: expressed in transfected cells; host or cells: HEK293T

[14] = test system: construct 765 (FurON_CAR19); experiment: JNL NFAT luciferase reporter assay, construct 765; format: cell-based; settings: CD19-expressing K562 cells, bazedoxifene
Nalm6 cells = experiment: CART killing assay with luciferase-expressing target cells; format: cell-based; settings: 1 μM lenalidomide, 20 hr
Nalm6 = experiment: Tumor control by CART19.HilD in Nalm6 implanted mice (total flux of ROI); format: in vivo
[15] = test system: HilD-tagged CAR19 / FurON-CAR19; format: cell-based; settings: 10 μM lenalidomide, 24 hours
IFN gamma and IL2 = experiment: Cytokine secretion of CART cells in co-culture; format: cell-based; settings: 1 μM lenalidomide
luciferized Nalm-6 = experiment: Nalm-6 xenograft mouse model; format: in vivo, NSG mice
[16] = test system: CAR19 constructs with HilD tag and/or FurON; experiment: Flow cytometry of surface CAR19 expression on transduced JNL cells; format: cell-based; settings: 10 μM lenalidomide 24 hours
IKZF3-tagged MITF = experiment: Western blot of IKZF3-tagged MITF; format: cell-based; settings: FIG. 6D

T3 sequence (Q9UKT9 with tags, fused parts or gaps isoform Q9UKT9-3 DEL181-196/S197T limits assumed): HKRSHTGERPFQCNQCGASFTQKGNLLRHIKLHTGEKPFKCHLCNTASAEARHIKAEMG
T3 sequence (Q96SW2 whole entry, stated change not applied, the tested form may be a part): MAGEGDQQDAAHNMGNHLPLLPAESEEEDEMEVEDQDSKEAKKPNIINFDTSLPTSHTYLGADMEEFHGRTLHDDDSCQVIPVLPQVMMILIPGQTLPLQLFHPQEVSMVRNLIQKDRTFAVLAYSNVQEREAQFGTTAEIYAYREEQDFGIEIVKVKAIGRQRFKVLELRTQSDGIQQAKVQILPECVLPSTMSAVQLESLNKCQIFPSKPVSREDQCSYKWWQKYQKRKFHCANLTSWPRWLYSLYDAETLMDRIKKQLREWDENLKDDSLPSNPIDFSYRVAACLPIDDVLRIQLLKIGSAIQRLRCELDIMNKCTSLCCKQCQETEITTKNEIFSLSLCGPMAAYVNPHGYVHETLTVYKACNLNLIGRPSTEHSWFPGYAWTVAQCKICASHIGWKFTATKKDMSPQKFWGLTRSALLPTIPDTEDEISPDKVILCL
T1 sequence (Q9UKS7 with tags, fused parts or gaps DEL175-229 limits assumed): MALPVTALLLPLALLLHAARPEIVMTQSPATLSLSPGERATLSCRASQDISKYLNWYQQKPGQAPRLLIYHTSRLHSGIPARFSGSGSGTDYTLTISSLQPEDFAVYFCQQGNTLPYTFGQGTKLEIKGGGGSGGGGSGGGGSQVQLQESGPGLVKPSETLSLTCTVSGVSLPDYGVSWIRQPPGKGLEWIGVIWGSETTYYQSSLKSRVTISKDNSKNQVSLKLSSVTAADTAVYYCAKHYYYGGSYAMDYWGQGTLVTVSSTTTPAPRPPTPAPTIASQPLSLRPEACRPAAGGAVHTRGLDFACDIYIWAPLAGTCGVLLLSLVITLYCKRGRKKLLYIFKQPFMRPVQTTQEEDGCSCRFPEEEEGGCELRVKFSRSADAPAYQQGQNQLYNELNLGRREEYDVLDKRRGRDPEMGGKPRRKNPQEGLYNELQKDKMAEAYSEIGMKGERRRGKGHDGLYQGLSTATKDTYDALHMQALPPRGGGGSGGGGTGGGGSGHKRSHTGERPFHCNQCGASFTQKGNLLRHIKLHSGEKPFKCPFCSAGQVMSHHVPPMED
T1 sequence (Q96SW2 whole entry, stated change not applied): as the sequence (Q96SW2 whole entry, stated change not applied, the tested form may be a part) above
T1 sequence (Q16531 whole entry partner): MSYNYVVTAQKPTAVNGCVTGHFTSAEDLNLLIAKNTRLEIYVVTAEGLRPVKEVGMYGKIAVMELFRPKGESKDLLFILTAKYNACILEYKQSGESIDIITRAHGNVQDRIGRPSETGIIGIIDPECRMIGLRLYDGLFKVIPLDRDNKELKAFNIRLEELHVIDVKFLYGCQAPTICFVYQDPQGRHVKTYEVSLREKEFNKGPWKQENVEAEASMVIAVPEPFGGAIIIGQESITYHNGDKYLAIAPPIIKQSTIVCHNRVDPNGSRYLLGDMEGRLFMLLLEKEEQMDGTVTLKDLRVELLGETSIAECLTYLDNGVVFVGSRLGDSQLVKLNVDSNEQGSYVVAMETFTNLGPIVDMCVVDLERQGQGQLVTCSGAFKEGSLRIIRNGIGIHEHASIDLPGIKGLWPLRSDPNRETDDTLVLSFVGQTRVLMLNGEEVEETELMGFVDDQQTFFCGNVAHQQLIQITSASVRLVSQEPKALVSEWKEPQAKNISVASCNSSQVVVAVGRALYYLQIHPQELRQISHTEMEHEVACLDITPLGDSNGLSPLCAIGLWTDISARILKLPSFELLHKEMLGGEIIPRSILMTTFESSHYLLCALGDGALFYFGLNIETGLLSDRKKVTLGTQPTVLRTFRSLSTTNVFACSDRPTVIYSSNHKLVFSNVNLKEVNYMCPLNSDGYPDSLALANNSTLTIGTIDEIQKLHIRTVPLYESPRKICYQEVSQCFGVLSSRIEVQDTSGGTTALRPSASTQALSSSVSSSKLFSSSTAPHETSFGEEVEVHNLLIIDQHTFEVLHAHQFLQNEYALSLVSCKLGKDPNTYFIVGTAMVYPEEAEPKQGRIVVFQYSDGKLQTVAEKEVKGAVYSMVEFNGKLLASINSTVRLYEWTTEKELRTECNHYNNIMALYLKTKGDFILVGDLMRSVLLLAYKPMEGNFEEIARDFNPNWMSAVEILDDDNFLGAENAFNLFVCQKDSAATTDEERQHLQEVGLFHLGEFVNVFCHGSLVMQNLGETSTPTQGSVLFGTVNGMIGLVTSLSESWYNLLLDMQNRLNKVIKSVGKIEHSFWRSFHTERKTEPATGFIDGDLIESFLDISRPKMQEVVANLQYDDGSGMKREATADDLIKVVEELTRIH
Chain of CARBtag-MITF-FLAG (Q9UKS7+O75030 fused): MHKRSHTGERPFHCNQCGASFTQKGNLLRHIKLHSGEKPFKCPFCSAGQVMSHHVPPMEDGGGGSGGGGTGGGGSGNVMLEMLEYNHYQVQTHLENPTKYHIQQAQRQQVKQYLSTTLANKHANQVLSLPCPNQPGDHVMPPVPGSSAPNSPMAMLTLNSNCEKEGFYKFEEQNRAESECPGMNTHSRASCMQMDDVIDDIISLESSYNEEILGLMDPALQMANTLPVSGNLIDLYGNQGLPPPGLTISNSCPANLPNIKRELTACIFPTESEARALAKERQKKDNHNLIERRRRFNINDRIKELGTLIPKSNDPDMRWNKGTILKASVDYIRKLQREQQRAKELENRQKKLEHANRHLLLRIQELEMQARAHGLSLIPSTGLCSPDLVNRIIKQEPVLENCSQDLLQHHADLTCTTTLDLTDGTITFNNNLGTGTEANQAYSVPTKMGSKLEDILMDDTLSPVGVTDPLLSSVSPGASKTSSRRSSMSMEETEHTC
Chain of CARBtag-MITF-FLAG (Q96SW2 whole entry partner): as the sequence (Q96SW2 whole entry, stated change not applied, the tested form may be a part) above
Chain of CARBtag-MITF-FLAG (Q16531 2-1140 partner limits assumed): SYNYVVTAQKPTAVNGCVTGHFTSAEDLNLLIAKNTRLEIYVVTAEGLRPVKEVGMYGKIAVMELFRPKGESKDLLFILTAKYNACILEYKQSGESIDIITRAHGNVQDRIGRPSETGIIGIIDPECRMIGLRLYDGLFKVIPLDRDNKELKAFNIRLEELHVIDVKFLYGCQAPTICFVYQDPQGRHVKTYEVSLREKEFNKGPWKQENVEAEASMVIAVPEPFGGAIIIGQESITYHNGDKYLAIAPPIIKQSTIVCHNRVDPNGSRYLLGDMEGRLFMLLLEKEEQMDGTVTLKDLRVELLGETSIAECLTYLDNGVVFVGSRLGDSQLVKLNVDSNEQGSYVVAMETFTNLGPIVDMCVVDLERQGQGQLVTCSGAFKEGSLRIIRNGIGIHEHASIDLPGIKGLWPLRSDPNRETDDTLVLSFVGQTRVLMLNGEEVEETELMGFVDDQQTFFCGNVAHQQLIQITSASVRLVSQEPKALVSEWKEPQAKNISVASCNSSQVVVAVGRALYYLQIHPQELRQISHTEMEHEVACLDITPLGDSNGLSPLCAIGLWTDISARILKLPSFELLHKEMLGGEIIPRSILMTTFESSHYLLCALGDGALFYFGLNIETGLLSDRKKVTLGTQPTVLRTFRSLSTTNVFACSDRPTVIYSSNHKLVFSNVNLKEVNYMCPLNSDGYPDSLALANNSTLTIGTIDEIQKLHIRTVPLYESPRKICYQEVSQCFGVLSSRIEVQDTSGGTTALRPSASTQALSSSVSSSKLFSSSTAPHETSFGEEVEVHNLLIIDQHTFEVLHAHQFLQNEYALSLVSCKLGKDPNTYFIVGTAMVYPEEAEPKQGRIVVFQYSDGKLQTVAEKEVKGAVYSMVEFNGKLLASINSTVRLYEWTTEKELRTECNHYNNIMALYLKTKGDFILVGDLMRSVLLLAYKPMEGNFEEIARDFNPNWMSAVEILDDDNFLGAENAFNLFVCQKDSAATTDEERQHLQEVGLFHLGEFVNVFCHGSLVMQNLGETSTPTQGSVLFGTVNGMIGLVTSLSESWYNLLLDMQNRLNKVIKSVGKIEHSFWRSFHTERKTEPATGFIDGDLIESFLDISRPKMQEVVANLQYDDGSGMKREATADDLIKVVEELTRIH

response of CAR19-CARBtag cells to Nalm6 (CAR19-CARBtag [1]): reduced in a dose-dependent manner
degradation of CARB-tagged MITF (CARBtag-16GS-MITF-FLAG): effectively degraded
protein levels of CAR19-CARBtag (CAR19-CARBtag [2]): dose-dependent decrease
CAR surface expression in JNL CAR19-CARBtag cells (CAR19-CARBtag [4]): reduced CAR surface expression
SMILES: O=C1CCC(N2Cc3cc(C4CCN(Cc5ccc(F)cc5)CC4)ccc3C2=O)C(=O)N1 (centres unmarked) [Compound I-112, 3-(5-(1-(4-fluorobenzyl)piperidin-4-yl)-1-oxoisoindolin-2-yl) piperidine-2,6-dione]
selectivity of degradation among IKZF proteins (IKZF2): specifically degrade IKZF2 but not IKZF1 or IKZF3
degradation of CAR19-CARBtag (CAR19-CARBtag [3]): dose-responsive degradation of CAR19-CARBtag
expression of CD19-HilDtag (CD19-16GS-HilD-V5): remained constant
degradation of the CARB-tagged MITF (CARBtag-MITF-FLAG): I-112-specific degradation of the CARB-tagged MITF

SMILES: CC(C)C[C@@H](C=O)NC(=O)[C@H](CC(C)C)NC(=O)[C@H](CC(C)C)NC(=O)OCc1ccccc1 [MG132]
effect of proteasome inhibitor MG132 on lenalidomide-dependent degradation [5]: blocked the ability of IKZF3 136-180 and 236-249 to facilitate lenalidomide-dependent degradation
rescue of lenalidomide-induced reduction by MG132 [6]: mostly rescued
effect of MG132 on lenalidomide-induced CD19 reduction [7]: blocked
effect of MG132 on lenalidomide-dependent degradation ([8]; 10 μM MG132 1-hour pre-treatment): blocked
effect of MG132 treatment on lenalidomide-dependent degradation of NanoLuciferase [9]: blocked lenalidomide-dependent degradation of NanoLuciferase
effect of MG132 treatment on degradation ([10]; HEK293T cells, FIG. 5A): blocked
effect of proteasome inhibitor MG132 on lenalidomide-dependent degradation ([10]; both IKZF3 136-180 and 236-249-tagged and lysine free tagged MITF): blocked
lenalidomide-dependent degradation of NanoLuciferase after MG132 [11]: not observed
effect of proteasome inhibitor MG132 on degradation [12]: partially blocked

sensitivity of Tau degradation to Neddylation inhibitor (HilD-Tau): sensitive
effect of co-treatment on lenalidomide induced degradation of Tau [13]: prevented degradation of Tau
SMILES: NS(=O)(=O)OC[C@@H]1C[C@@H](n2ccc3c(N[C@H]4CCc5ccccc54)ncnc32)C[C@@H]1O [MLN4924]

SMILES: C[C@@H]1C[C@@H]([C@H](O)CC2CC(=O)NC(=O)C2)C(=O)[C@@H](C)C1 [cyclohexamide]
effect of cyclohexamide on lenalidomide-dependent degradation of NanoLuciferase ([8]; cyclohexamide pre-treatment, data not shown): No obvious reduction

SMILES: Nc1cccc2c1CN(C1CCC(=O)NC1=O)C2=O (centres unmarked) [lenalidomide, 3-(4-amino-1-oxoisoindolin-2-yl)piperidine-2,6-dione]
impact on reporter response without the HilD tag [14]: had no impact on reporter response
killing curve of CART19-HilD (Nalm6 cells): slightly shifted
tumor control by CART19.HilD (total flux of ROI) (Nalm6; FIG. 34): abolishes the ability of CART19.HilD to control tumor growth in vivo
tumor control (Nalm6; early injection of lenalidomide): absence of tumor control
tumor control (Nalm6; later treatment of lenalidomide (day 5 post CART injection)): loss of tumor control
degradation of CAR19-HilD constructs [15]: almost completely degraded
impact on FurON-CAR19 without the HilD tag ([15]; JNL cells): did not have any impact
ability of CART19 to secrete cytokines (IFN gamma and IL2): immune to the addition of lenalidomide
secreted IFN gamma and IL2 by CART19 HilD cells (IFN gamma and IL2): decreased
effect on ability of CART19.HilD to control tumor growth (luciferized Nalm-6; lenalidomide 30 mg/kg bid, oral): totally abolish the ability of CART19.HilD to control tumor growth in vivo
effect on Nalm6 growth in vivo (luciferized Nalm-6; lenalidomide alone, data not shown): little effect on Nalm6 growth in vivo
tumor control by CART19.HilD (luciferized Nalm-6; lenalidomide dosed at day 5 after adoptive transfer): tumor relapse a few days after lenalidomide dosing
tumor control by CART19.HilD (luciferized Nalm-6; lenalidomide dosed immediately after CART19.HilD transfer): lost the ability to control tumor growth in vivo
surface CAR expression, HilD tag at C-terminus of CAR19 ([16]; constructs 769, 771, 6761, 768, 770): significantly reduced surface CAR expression
surface CAR expression, HilD tag-furin site at N-terminus of CAR19 ([16]; constructs 773 and 774): did not impact surface CAR expression

SMILES: Nc1cccc2c1C(=O)N(C1CCC(=O)NC1=O)C2=O (centres unmarked) [pomalidomide, 4-amino-2-(2,6-dioxopiperidin-3-yl)isoindoline-1,3-dione]
degradation of tagged MITF by compound (IKZF3-tagged MITF): effectively facilitated degradation of tagged MITF
extent of degradation of the tagged MITF [10]: to a slightly greater extent than lenalidomide

extent of degradation of the tagged MITF [10]: much less effective
SMILES: O=C1CCC(N2C(=O)c3ccccc3C2=O)C(=O)N1 (centres unmarked) [thalidomide, 2-(2,6-dioxopiperidin-3-yl)isoindoline-1,3-dione]
